Tests used:
[1] = tested on: IL-4 secretion by Th2 cells; assay: IL-4 secretion by Th2 cells derived from BALB/c mice (ELISA); format: cell-based; conditions: 3 days; for secretion of pro-inflammatory IL-4 by Th2 cells: 2.3 μM, vs vehicle (0.5% DMSO)
Method: Given that Th2 cells mediate the immunological effects of asthma in humans and animals, we tested the effects of cyclo Tyr-Val on Th2 cells in culture. Naive T cells were isolated from BALB/c mice, and the cells were incubated in a culture medium containing anti-CD3 antibody (2 μg/ml), anti-CD28 antibody (2 μg/ml), anti-interferon-γ (IFN-γ) antibody (10 μg/ml), and IL-4 (10 ng/ml) in order to induce T cell differentiation into Th2 cells. The Th2 cells were treated for 3 days with 2.3 μM of cyclo Tyr-Val, cyclo alanine-isoleucine (cyclo Ala-Ile), cyclo alanine-leucine (cyclo Ala-Leu), cyclo tyrosine-leucine (cyclo Tyr-Leu), cyclo alanine-phenylalanine (cyclo Ala-Phe), or cyclo tyrosine-isoleucine (cyclo Tyr-Ile), and IL-4 protein level was measured using an enzyme-linked immunosorbent assay (ELISA) kit (eBioscience, USA).
(§1) We confirmed that cyclo Tyr-Val inhibits IL-4 secretion by Th2 cells. Th2 cells isolated from BALB/c or C57BL/6J mice were either left untreated or treated for 3 days with the vehicle (0.5% DMSO in saline) or various concentrations of cyclo Tyr-Val, followed by detection of IL-4 production using ELISA.
(§2) The effects of cyclo Tyr-Val on the secretion of other pro-inflammatory cytokines were investigated. […] As shown in FIGS. 4A-4C, cyclo Tyr-Val inhibited not only the secretion of IL-4, but also that of IL-5 and IL-13.

[2] = tested on: OVA-induced asthmatic mice; assay: Serum OVA-specific antibodies in OVA-induced asthmatic mice (ELISA); format: in vivo, BALB/c mice; conditions: IP 0.11304-113.04 nmol/kg per day, day 21 to 27
Source text: (§3) Given that asthma is characterized by accumulation of immune cells including eosinophils in lung tissues, we studied the effects of cyclo Tyr-Val on BALF cell count, pro-inflammatory cytokine secretion, and antibody production. OVA-induced asthmatic mice (BALB/c) were established according to the method described in Example 2. After the mice were intraperitoneally treated with the vehicle (0.5% DMSO in saline) or cyclo Tyr-Val at a dose of 0.11304, 1.1304, 11.304, or 113.04 nmol/kg of body weight per day on day 21 to 27, BALF and serum were collected. Total cell count in BALF was determined using a hemocytometer; eosinophils were counted after isolation using Cytospin. Protein levels of IL-4, IL-5, and IL-13 in BALF were determined using ELISA. Serum protein levels of OVA-specific antibodies, including IgE, IgG1, and IgG2a, were determined using ELISA (eBioscience).

[3] = tested on: Th2 cells; assay: Viability of Th2 cells (WST-1 kit); format: cell-based, BALB/c mice; conditions: 0.018-285.932 μM, 3 days
Method: Experiments were performed to examine the effects of cyclo Tyr-Val on cell viability. Th2 cells isolated from BALB/c mice were either left untreated or treated for 3 days with the vehicle (0.5% DMSO in saline) or cyclo Tyr-Val at a concentration of 0.018, 0.091, 0.457, 2.287, 11.438, 57.186, or 285.932 μM. The viability of these cells was assessed using the WST-1 kit (Roche, Switzerland) according to the manufacturer's instructions.

[4] = tested on: IL-13 secretion by Th2 cells; assay: IL-13 secretion by Th2 cells derived from BALB/c mice (ELISA); format: cell-based; conditions: 0.25 μM, 3 days
Source text: as §2

[5] = tested on: IL-5 secretion by Th2 cells; assay: IL-5 secretion by Th2 cells derived from BALB/c mice (ELISA); format: cell-based; conditions: 0.25 μM, 3 days
Source text: as §2

[6] = Blood biochemical parameters (hepatic and renal functions) in mice; format: in vivo; conditions: IP 11.304 nmol/kg
Method: The effects of cyclo Tyr-Val treatment on hepatic and renal functions in mice were evaluated to determine if the compound produces toxic side effects. For these experiments, saline-treated mice (control group) or OVA-induced asthmatic mice were intraperitoneally treated with the vehicle (0.5% DMSO in saline) or cyclo Tyr-Val (at a dose of 11.304 nmol/kg), followed by measurement of blood biochemical parameters, including levels of aspartate transaminase (AST), alanine transaminase (ALT), total bilirubin (T-BIL), albumin (ALB), blood urea nitrogen (BUN), creatinine (CREA), and uric acid (UA). The blood biochemical parameters were monitored using a Hitachi 7080 biochemical analyzer (Hitachi, Japan).

[7] = tested on: OVA-induced asthmatic mice; assay: BALF total cell and eosinophil count in OVA-induced asthmatic mice; format: in vivo, BALB/c mice; conditions: IP 0.11304-113.04 nmol/kg per day, day 21 to 27
Source text: as §3

[8] = tested on: OVA-induced asthmatic mice; assay: IL-4, IL-5, IL-13 protein levels in BALF of OVA-induced asthmatic mice (ELISA); format: in vivo, BALB/c mice; conditions: IP 0.11304-113.04 nmol/kg per day, day 21 to 27
Source text: as §3

[9] = tested on: OVA-induced asthmatic mice; assay: Treatment after establishment of OVA-induced AHR, comparison with dexamethasone; format: in vivo, BALB/c mice; conditions: IP 11.304 nmol/kg per day, day 28 to 34, after establishment of AHR
Method: In this example, the anti-asthmatic effect of cyclo Tyr-Val was compared with those of dexamethasone, a pharmaceutical drug conventionally used to treat asthma. OVA-induced asthmatic mice (BALB/c) were established according to the method described in Example 2. The mice were treated with 2% OVA using a nebulizer on day 30 and 33 and were intraperitoneally treated with the vehicle (0.5% DMSO in saline) or cyclo Tyr-Val (at a dose of 11.304 nmol/kg of body weight per day) on day 28 to 34, followed by measurement of AHR, total cell count in BALF, and eosinophil count in BALF. Another group of OVA-induced asthmatic mice that were treated orally with dexamethasone (at a dose of 3 mg/kg of body weight per day) on day 28 to 34 were used as a positive control.

[10] = tested on: OVA-induced asthmatic mice; assay: OVA-induced airway hyperresponsiveness (Penh, whole-body plethysmography, methacholine); format: in vivo, BALB/c mice; conditions: IP 0.11304-113.04 nmol/kg per day, day 21 to 27, methacholine 0-40 mg/ml
Method: Given that asthma is characterized by hyperresponsiveness to airway stimulants, we examined the effect of cyclo Tyr-Val on AHR in the OVA-induced asthmatic mice stimulated with the exemplary antigen OVA and methacholine (Mch). BALB/c mice were treated intraperitoneally with 50 μg of OVA (Sigma, USA) mixed with 0.8 mg of aluminum hydroxide (Thermo Fischer Scientific, USA) on day 0, 1, 2, and 14, and treated with 2% OVA for 20 minutes using a nebulizer (Pulmo-Aide 5650D; DeVilbiss, USA) on day 14, 17, 21, 24, and 27. The OVA-induced asthmatic mice were intraperitoneally treated with the vehicle (0.5% DMSO in saline) or cyclo Tyr-Val at a dose of 0.11304, 1.1304, 11.304, or 113.04 nmol/kg of body weight per day on day 21 to 27. Airway resistance (Penh) was measured using a whole-body plethysmography (WBP) chamber (Buxco Electronics, USA) after stimulation with methacholine at doses of 0, 10, 20, 30, and 40 mg/ml.

[11] = tested on: IL-4 secretion by Th2 cells; assay: IL-4 secretion by Th2 cells derived from C57BL/6J mice (ELISA); format: cell-based; conditions: 3 days
Source text: as §1

[12] = tested on: OVA-induced asthmatic mice; assay: Mode of administration (IP, inhalation, oral) in OVA-induced asthmatic mice; format: in vivo, BALB/c mice; conditions: 11.304 nmol/kg per day, 7 days
Method: This example illustrates the effects of the mode of administration of cyclo Tyr-Val on asthmatic mice. OVA-induced asthmatic mice (BALB/c) were established according to the method described in Example 2. On day 21, the mice were treated intraperitoneally (IP), by inhalation (IH), or orally with cyclo Tyr-Val (at a dose of 11.304 nmol/kg of body weight per day) for 7 days, followed by assessment of AHR, total cell count in BALF, and eosinophil count in BALE OVA-induced asthmatic mice that were administered daily with the vehicle (0.5% DMSO in saline) intraperitoneally were used as control. As shown in FIGS. 9A-9C, treatment of OVA-induced asthmatic mice with cyclo Tyr-Val for 7 days via intraperitoneal injection, inhalation, or the oral route reduced AHR, total BALF cell count, and BALF eosinophil accumulation, compared with the vehicle-treated group.

CC[C@H](C)[C@@H]1NC(=O)[C@H](C)NC1=O [cyclo Ala-Ile, cyclo alanine-isoleucine, reference compound]
secretion of pro-inflammatory IL-4 by Th2 cells [1]: failed to inhibit IL-4 secretion

CC(C)C1NC(=O)C(Cc2ccc(O)cc2)NC1=O (stereo not shown) [cyclo Tyr-Val, cyclo tyrosine-valine]
OVA-specific IgE production in sera [2]: dose-dependently reduces
OVA-specific IgG1 production in sera [2]: dose-dependently reduces
OVA-specific IgG2a production in sera [2]: dose-dependently reduces
cytotoxic effects on cultured Th2 cells (viability) [3]: no cytotoxic effects
secretion of IL-13 [4]: inhibited
secretion of IL-5 [5]: inhibited
ALB ([6]; OVA-induced asthmatic mice): 2.737 ± 0.322 g/dL
ALT ([6]; OVA-induced asthmatic mice): 26.673 ± 2.279 U/l
AST ([6]; OVA-induced asthmatic mice): 69.718 ± 4.115 U/l
BUN ([6]; OVA-induced asthmatic mice): 25.864 ± 2.638 mg/dL
CREA ([6]; OVA-induced asthmatic mice): 0.250 ± 0.078 mg/dL
T-BIL ([6]; OVA-induced asthmatic mice): 26.508 ± 2.454 µg/dL
UA ([6]; OVA-induced asthmatic mice): 2.690 ± 0.275 mg/dL
hepatic or renal functions ([6]; control and OVA-induced asthmatic mice): did not significantly affect
ALB ([6]; control mice): 2.669 ± 0.480 g/dL
ALT ([6]; control mice): 26.283 ± 2.813 U/l
AST ([6]; control mice): 70.775 ± 3.056 U/l
BUN ([6]; control mice): 26.588 ± 2.756 mg/dL
CREA ([6]; control mice): 0.236 ± 0.124 mg/dL
T-BIL ([6]; control mice): 26.169 ± 3.536 µg/dL
UA ([6]; control mice): 2.979 ± 0.412 mg/dL
OVA-induced cell infiltration in BALF (total cell count) [7]: reduced
OVA-induced eosinophilia in BALF [7]: reduced
OVA-induced secretion of IL-4 in BALF [8]: reduced
OVA-induced secretion of IL-5 in BALF [8]: reduced
OVA-induced secretion of IL-13 in BALF [8]: reduced
AHR [9]: significantly reduced
BALF eosinophil accumulation [9]: significantly reduced
BALF total cell count [9]: significantly reduced
OVA-induced AHR (airway resistance, Penh) [10]: inhibited OVA-induced AHR in a dose-dependent manner
IC50 ([11]; Mus musculus, 72 h, Th2 cells from C57BL/6J mice, read-out: IC50, inhibition of IL-4 secretion): 45.1 nM
IC90 ([11]; Mus musculus, 72 h, Th2 cells from C57BL/6J mice, read-out: IC90, inhibition of IL-4 secretion): 357 nM
IL-4 secretion, dose dependence ([11]; various concentrations, C57BL/6J Th2 cells): inhibited IL-4 secretion in a dose-dependent manner
secretion of IL-4 ([1]; 0.25 μM): inhibited
secretion of pro-inflammatory IL-4 by Th2 cells [1]: significantly inhibited
IC50 ([1]; Mus musculus, 72 h, Th2 cells from BALB/c mice, read-out: IC50, inhibition of IL-4 secretion): 26.4 nM
IC90 ([1]; Mus musculus, 72 h, Th2 cells from BALB/c mice, read-out: IC90, inhibition of IL-4 secretion): 252 nM
IL-4 secretion, dose dependence ([1]; various concentrations, BALB/c Th2 cells): inhibited IL-4 secretion in a dose-dependent manner
AHR ([12]; inhalation): reduced
BALF eosinophil accumulation ([12]; inhalation): reduced
total BALF cell count ([12]; inhalation): reduced
AHR ([12]; intraperitoneal injection): reduced
BALF eosinophil accumulation ([12]; intraperitoneal injection): reduced
total BALF cell count ([12]; intraperitoneal injection): reduced
AHR ([12]; oral route): reduced
BALF eosinophil accumulation ([12]; oral route): reduced
total BALF cell count ([12]; oral route): reduced

CC(C)CC1NC(=O)C(Cc2ccc(O)cc2)NC1=O (stereo not shown) [cyclo Tyr-Leu, cyclo tyrosine-leucine]
secretion of pro-inflammatory IL-4 by Th2 cells [1]: inhibited IL-4 to some extent

CC1NC(=O)C(Cc2ccccc2)NC1=O (stereo not shown) [cyclo Ala-Phe, cyclo alanine-phenylalanine, reference compound]
secretion of pro-inflammatory IL-4 by Th2 cells [1]: failed to inhibit IL-4 secretion

CC(C)C[C@@H]1NC(=O)[C@H](C)NC1=O [cyclo Ala-Leu, cyclo alanine-leucine, reference compound]
secretion of pro-inflammatory IL-4 by Th2 cells [1]: failed to inhibit IL-4 secretion

CC[C@H](C)[C@@H]1NC(=O)[C@H](Cc2ccc(O)cc2)NC1=O [cyclo Tyr-Ile, cyclo tyrosine-isoleucine, reference compound]
secretion of pro-inflammatory IL-4 by Th2 cells [1]: failed to inhibit IL-4 secretion
